Test results: article PMC10005075, “Study on Absorption, Distribution and Excretion of a New Candidate Compound XYY-CP1106 against Alzheimer’s Disease in Rats by LC-MS/MS” (Molecules, 2023)
Entries after “also recorded” stand apart in the source; their conditions may differ. Where two headings read alike, the source gives them in different places.

Assays:
[1] = test system: MAO-B; set-up: method as in PMID 31325784; conditions: cited from earlier work
[2] = test system: scopolamine-induced AD mouse model; set-up: method as in PMID 31325784; conditions: scopolamine-induced AD mice, intraperitoneal injection 10 mg/kg; cited from earlier work
[3] = Plasma pharmacokinetic study after oral and tail vein administration; type: in vivo, Sprague-Dawley (SD) rats; set-up: clearance: unit not given here; conditions: rats; for AUC(0-t): read-out: AUC0–24
Method: Non-compartmental calculations were performed using the PK Solver plug-in (China Pharmaceutical University, Nanjing, China) to estimate the main pharmacokinetic parameters. All values were expressed as the mean ± standard deviation.
Amounts of 100 μL plasma, 100 μL IS working solution (1000 ng/mL), 100 μL aqueous solution containing 0.2% formic acid and 700 μL ice methanol for protein precipitation were successively added into the 1.5 mL centrifuge tube, and it was vortexed for 30 s. Then, it was centrifuged at 13,000 rpm for 10 min at 4 °C, and the upper clarifying solution was extracted and placed in a new 1.5 mL tube and was centrifuged again under the same conditions. Five microliters of the sample were measured and injected into the LC-MS/MS system for analysis.
For oral administration, six SD rats were fed with freely available food and water and fasted with free access to water for 12 h before drug administration. The rats in each group were weighed and recorded; then, the oral dose was 15 mg/kg. The average weight of rats was 200 ± 30 g. At 0.083, 0.25, 0.5, 0.75, 1, 2, 4, 6, 8, 12 and 24 h after oral administration, 0.3 mL of blood samples were collected from the suborbital vein and put into a 1.5 mL heparin sodium tube. The collected plasma sample was centrifuged at 4 °C for 10 min at 3500 revolutions, and 100 μL of supernatant was taken and stored at −20 °C for future use.
For tail vein injection, six SD rats were weighed and recorded; then, XYY-CP1106 (0.384 mg/mL, 1.92 mg/kg) filtered by a 0.22 µm filter membrane was administered via tail vein injection. An amount of 0.3 mL of blood samples were collected from the suborbital vein into heparin sodium tubes at 0.083, 0.25, 0.5, 0.75, 1, 2, 4, 6, 8, 12 and 24 h after caudal intravenous administration. The collected plasma samples were treated in the same way as oral administration.
The oral absolute bioavailability (F) in rats was calculated according to the following equation:F = (AUCoral(0–∞) × Doseiv)/(AUCiv(0–∞) × Doseoral) × 100%,(1)

[4] = set-up: method as in PMID 31325784; conditions: chelating ability for Fe^3+; cited from earlier work
[5] = Tissue distribution study after oral administration; type: in vivo, Sprague-Dawley (SD) rats; conditions: rats, oral 15 mg/kg
Method: The tissue sample was weighed and cut into pieces. Normal saline was added to brain tissue at the ration of 1:1 (g: mL) and other tissues at the ration of 1:3 (g: mL). The tissue homogenate was symmetrically placed in a tissue homogenizer to obtain tissue homogenate.
Amount of 0.5 mL of tissue homogenate and 1.5 mL of acetonitrile were added into a 5 mL centrifuge tube for protein precipitation by vortex, and 1 mL of vortex solution was added into a 1.5 mL centrifuge tube and centrifuged at 13,000 revolutions at for 10 min 4 °C. Then, 900 μL supernatant and 100 μL IS working solution were added into a 1.5 mL centrifuge tube to vortex for 30 s. It was centrifuged twice under the same conditions; then, the supernatant (5 μL) was injected into the LC-MS/MS system.
Thirty SD rats were randomly divided into 5 groups (n = 6), fed with freely available food and water and fasted with free access to water for 12 h before drug administration. All rats were weighed and recorded. The 5 groups of rats were given a single oral dose (15 mg/kg) of XYY-CP1106 (1.0 mg/mL) and sacrificed with cervical dislocation at 0.25, 1, 2, 4 and 8 h, respectively. The heart, liver, spleen, lungs, kidneys and brain of the rats were quickly removed, and the blood was carefully rinsed off with physiological saline (0.9%). The normal saline on the surface of all tissue samples was dried with filter paper then stored in a refrigerator at −80 °C.

[6] = Excretory study (urine and feces) after oral administration; type: in vivo; conditions: rats
Method: After the collected feces were dried at room temperature, a pestle and mortar were used to uniformly crush the feces collected at each time slot. Then, 0.2 g of ground feces were accurately weighed into a 5.0 mL centrifuge tube, 4 mL of methanol solution was added and then it was put into the ultrasonic instrument for ultrasonic extraction for 4 h. Then, 100 μL of feces samples were added into a 1.5 mL centrifuge tube. Next, it was treated the same as the plasma samples.
Urine samples were collected and processed directly. An aliquot of 100 µL of urine sample was taken and processed in the same manner as the plasma samples.
Ten rats were fed with freely available food and water and fasted with free access to water for 12 h before drug administration. They were given a single dose of XYY-CP1106 (15 mg/kg, 1.0 mg/mL) and then put into metabolic cages. Feces and urine were collected at 0–4, 4–8, 8–12, 12–24, 24–36, 36–48, 48–60, 60–72, 72–84 and 84–96 time slots, respectively. The feces collected at each time slot were air-dried to record their weight and stored in a refrigerator at −20 °C before use. The urine volume was recorded at each time slot and stored in a refrigerator at −20 °C before use.

[7] = Solubility in water; type: physicochemical
Method: A certain amount of XYY-CP1106 was weighed and dissolved completely in methanol. β-cyclodextrin aqueous solution was added to make it 50% methanol and 30% β-cyclodextrin solution. Then, it was placed in ultrasound for 4 h under an ultrasonic bath after vortex. Next, it was freeze-dried for 2 days; then, it was redissolved in PBS solution to the final concentration of 1.0 mg/mL.

[8] = Stability in plasma, tissues, feces and urine under storage conditions; set-up: species or system rat; conditions: automatic sampler 24 h; three freeze–thaw cycles −20 °C to room temperature; −20 °C for 30 days
Method: The stability of XYY-CP1106 standard in plasma, tissues, feces and urine biological samples under different storage conditions was analyzed, including the stability of samples stored at room temperature for 24 h in an automatic sampler, the freeze–thaw stability after three cycles (−20 °C to room temperature was defined as a cycle), and −20 °C for the last 30 days. When the deviation from the standard value was within 15% (low concentration was within 20%), the sample was considered stable. The concentration of standard substance in plasma was 10 and 160 ng/mL. The standard concentration in tissues, feces and urine was 10 and 800 ng/mL.

[9] = Sprague-Dawley, rat, plasma, iv, I.V (tail vein) 1.92 mg/kg, n = 6
[10] = Sprague-Dawley, rat, plasma, po, P.O 15 mg/kg, n = 6

In the case of `Cc1c(O)c(=O)ccn1Cc1cc2ccc(OCc3cccc(F)c3)cc2oc1=O` [XYY-CP1106], the IC50 [1] is listed as 14.7 nM, the “effect on behavioral and cognitive impairment (water maze)” value [2] is listed as “could significantly alleviate the behavioral and cognitive impairment of mice” and the Tmax ([3]; Sprague-Dawley, rat, plasma, 15 mg/kg, oral administration, read-out: time to maximum plasma concentration (converted)) is listed as 0.75 h. It also gave an AUC(0-inf) [3, 9] of 599 ± 31.8 ng·h/mL, a Cmax [3, 9] of 691 ± 120 ng/mL and a clearance [3, 9] of 0.0268. For the same compound, the half-life [3, 9] was 3.5 ± 2.24 h, the AUC(0-t) [3, 9] was 540 ± 43.7 ng·h/mL and the Tmax ([3]; Sprague-Dawley, rat, plasma, iv, I.V (tail vein) 1.92 mg/kg, n = 6, read-out: Tmax) was 0.083 h. The half-life ([3]; Sprague-Dawley, rat, plasma, oral, P.O 15 mg/kg, n = 6) was 8.26 to 10.1 h, the Tmax ([3]; Sprague-Dawley, rat, plasma, oral, P.O 15 mg/kg, n = 6, read-out: Tmax) was 0.57 to 0.93 h and the bioavailability ([3]; Sprague-Dawley, rat, plasma, po, P.O 15 mg/kg vs I.V 1.92 mg/kg, from AUC0–∞, read-out: absolute oral bioavailability (F)) was 10.7 ± 1.72%. The AUC(0-inf) [3, 10] was 503 ± 77.7 ng·h/mL, the Cmax [3, 10] was 153 ± 15.9 ng/mL and the half-life [3, 10] was 9.16 ± 0.9 h. The AUC(0-t) [3, 10] was 428 ± 66.1 ng·h/mL, the V ([3]; I.V (tail vein) 1.92 mg/kg, n = 6) was 0.00403 ± 0.0018 L/kg and the V ([3]; P.O 15 mg/kg, n = 6) was 0.4017 ± 0.06959 L/kg. For the same compound, the “pFe^3+” value [4] was 18.04, the concentration at 2 h ([5]; Sprague-Dawley, rat, brain, 2 h after administration) was 501 ± 260 ng/g and the “blood–brain barrier penetration” value ([5]; detected in brain tissue, 15 mg/kg) was “could pass through the blood–brain barrier; also recorded: could penetrate the blood–brain barrier; also recorded: penetrating the BBB”. The “main tissues of distribution” value ([5]; heart, liver, spleen, lung, kidney, brain, 0.25-8 h) was “mainly distributed in the liver and kidneys”, the “time of maximum excretion rate in feces” value ([6]; 15 mg/kg by gavage) was 8 to 12 h and the “time of maximum excretion rate in urine” value ([6]; 15 mg/kg by gavage) was 4 to 12 h. For the same compound, the “excretion through urine, % of the dose” value ([6]; 15 mg/kg by gavage, within 24 h) was 0.01 ± 0.00%, the “excretion through feces, % of the dose” value ([6]; 15 mg/kg by gavage, within 72 h) was 31.14 ± 0.05% and the “average cumulative excretion through feces” value ([6]; oral 15 mg/kg, prototype drug) was 0.94 ± 0.14 mg. The water solubility [7] was “low water solubility; also recorded: almost insoluble in water” and the “stability in biological matrices” value [8] was “stable”.
